Source: PMC12363518, “Azobenzene-Modified Temperature-Responsive Short Elastin-like Peptides for Photo-Controlled Phase Transition” (ACS Synthetic Biology, 2025)
Numbered stars: 1 amine (or outer) side, 2 acyl side, 3 side chain; on linkers, the order of the positions; unused ones are H or OH. Bridge positions count the residues as written; N and C are the ends. Peptide text beside a SMILES is read from it. I, II: the chains in the order shown. X1 = O=C(c1ccc(N=Nc2ccc(C(=O)[*:2])cc2)cc1)[*:1]

Assay: Optical / fluorescence microscopy of coacervates and Rhodamine B-loaded aggregates
Type: physicochemical
Method: To investigate the morphological properties of the ELP–azobenzene conjugates, a PBS solution of Azb-2(K-F2) was observed by using optical microscopy at different temperatures under light-protected conditions. The Azb-2(K-F2) solution was almost homogeneous at 25 °C (Figure A). However, spherical coacervates of the peptide emerged at 35 °C and then rapidly matured into larger particles with diameters of several micrometers by increasing the temperature to 37 °C (Figure B,C). These particles stably exist under dark conditions (Figure D).
Azb-2(K-F2) was further studied to determine whether the chemical release from the peptide aggregates could be controlled by light irradiation. Azb-2(K-F2) and Rhodamine B (a red fluorescent dye) were heated in PBS to form coacervates, and a stable pellet of the aggregate was obtained by centrifugation. This pellet was composed of Azb-2(K-F2) coacervates containing rhodamine B with diameters of several micrometers, as shown in Figure . The structure of the obtained sample was observed over time by using optical and fluorescence microscopy under irradiation with monochromatic light at a wavelength of 365 nm (Figure ). Before light irradiation, the peptide aggregate containing Rhodamine B was observed as a red-colored amorphous structure with a size of approximately 600–700 μm. When irradiated with UV-A light, spherical particles (several micrometers in diameter) leaked from the surface of the aggregates and the red dye diffused accordingly. This dissociation process was considered to be the reverse of the stepwise phase separation in which ELP formed submicron-ordered aggregates and then matured to larger aggregates with diameters of several micrometers. […] In contrast, the peptide aggregate containing Rhodamine B was stable at 37 °C in the absence of UV-A light (Figure S12).
The morphology of the coacervates of the ELP–azobenzene conjugate Azb-2(K-F2) was observed by optical microscopy. The light field observation was performed using a Leica DM IL LED (Leica Microsystems CMS, Wetzlar, Germany) equipped with HI PLAN 40× (Leica Microsystems CMS), HC PLAN 10× (Leica Microsystems CMS), and a Leica EL6000 external light source (Leica Microsystems CMS). Azb-2(K-F2) was dissolved in PBS buffer at a concentration of 3 mg/mL. Sample imaging was performed at 25, 35, and 37 °C by using a Thermo Plate TP-CHSQM (Tokai Hit Co., Ltd., Shizuoka, Japan). […]
A time-course observation of Azb-2(K-F2) aggregates in the presence of a fluorescent dye was also performed. To the Azb-2(K-F2) solution (in phosphate buffer, pH 7.4, 3 mg/mL) was added Rhodamine B at a final concentration of 50 μM. The resulting solution was incubated at 37 °C for 4 h. Then, the solution was centrifuged for 20 s (6200 rpm) to obtain an aggregate of the peptide as a red pellet. The obtained peptide aggregate was washed with PBS buffer (37 °C, 50 μL, three times) and was used to make a prepared slide. Time-dependent observation of the prepared sample was carried out at 37 °C under irradiation with 365 nm monochromatic light.

CC(C)[C@H](NC(=O)CNC(=O)[C@@H]1CCCN1C(=O)[C@H](Cc1ccccc1)NC(=O)CNC(=O)[C@@H](NC(=O)CNC(=O)[C@@H]1CCCN1C(=O)[C@H](Cc1ccccc1)NC(=O)[C@H](CCCCN)NC(=O)c1ccc(N=Nc2ccc(C(=O)N[C@@H](CCCCN)C(=O)N[C@@H](Cc3ccccc3)C(=O)N3CCC[C@H]3C(=O)NCC(=O)N[C@H](C(=O)NCC(=O)N[C@@H](Cc3ccccc3)C(=O)N3CCC[C@H]3C(=O)NCC(=O)N[C@H](C(=O)NCC(=O)O)C(C)C)C(C)C)cc2)cc1)C(C)C)C(=O)NCC(=O)O [Azb-2(K-F2)] (I: KFPGVGFPGVG-OH / II: KFPGVGFPGVG-OH; linker I:N-II:N via X1)
aggregate containing Rhodamine B without UV-A light (37 °C, absence of UV-A light (Figure S12)): stable
aggregate containing Rhodamine B under continued UV-A irradiation (optical and fluorescence microscopy, 37 °C, 365 nm monochromatic light, Rhodamine B 50 μM at loading): completely collapsed
coacervate particles after UV-A irradiation (optical microscopy, 3 mg/mL in PBS, 37 °C, UV-A 365 nm for 5 min): particles disappeared
coacervate particles after subsequent room light (optical microscopy, 3 mg/mL in PBS, 37 °C, room light 5 min after UV-A): spherical aggregates reappeared
temperature at which spherical coacervates emerged (optical microscopy, 3 mg/mL in PBS, light-protected): 35 °C
